Laboratory results: publication PMC12615753, “Glutathione as a taste modulator: molecular mechanisms of interaction with umami and sweet taste receptors” (Food Chemistry: Molecular Sciences, 2025)

Target: T1, hTAS1R1 Q278Y/rTAS1R3 (Homo sapiens, UniProt Q7RTX1, Q278Y)
T1 construct: expressed in transfected cells; host or cells: HEK293T/17 (ATCC CRL-11268)
T1 sequence (Q7RTX1 21-841 Q278Y): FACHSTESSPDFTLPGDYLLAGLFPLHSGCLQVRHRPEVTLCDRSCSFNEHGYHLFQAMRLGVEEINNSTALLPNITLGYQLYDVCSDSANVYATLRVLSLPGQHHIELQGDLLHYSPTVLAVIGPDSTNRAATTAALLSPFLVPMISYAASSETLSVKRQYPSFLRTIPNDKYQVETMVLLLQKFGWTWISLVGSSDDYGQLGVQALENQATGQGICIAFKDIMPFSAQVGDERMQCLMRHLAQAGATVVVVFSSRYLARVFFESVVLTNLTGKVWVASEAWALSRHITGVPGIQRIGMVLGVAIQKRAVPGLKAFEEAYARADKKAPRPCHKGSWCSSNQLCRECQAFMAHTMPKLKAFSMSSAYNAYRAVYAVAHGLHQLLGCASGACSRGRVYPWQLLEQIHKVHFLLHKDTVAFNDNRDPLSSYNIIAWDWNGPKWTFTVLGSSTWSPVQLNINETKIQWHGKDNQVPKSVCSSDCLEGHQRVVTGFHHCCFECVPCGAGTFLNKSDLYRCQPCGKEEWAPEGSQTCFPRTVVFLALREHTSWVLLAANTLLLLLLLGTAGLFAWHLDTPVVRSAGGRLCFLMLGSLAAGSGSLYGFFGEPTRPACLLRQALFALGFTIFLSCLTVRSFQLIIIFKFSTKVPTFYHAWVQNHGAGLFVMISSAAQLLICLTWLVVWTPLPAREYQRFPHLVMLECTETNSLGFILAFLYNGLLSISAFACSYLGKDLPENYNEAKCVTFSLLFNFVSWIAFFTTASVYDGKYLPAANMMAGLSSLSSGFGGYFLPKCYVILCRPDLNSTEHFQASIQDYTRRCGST
T1 sequence (Q923K1 21-858 partner): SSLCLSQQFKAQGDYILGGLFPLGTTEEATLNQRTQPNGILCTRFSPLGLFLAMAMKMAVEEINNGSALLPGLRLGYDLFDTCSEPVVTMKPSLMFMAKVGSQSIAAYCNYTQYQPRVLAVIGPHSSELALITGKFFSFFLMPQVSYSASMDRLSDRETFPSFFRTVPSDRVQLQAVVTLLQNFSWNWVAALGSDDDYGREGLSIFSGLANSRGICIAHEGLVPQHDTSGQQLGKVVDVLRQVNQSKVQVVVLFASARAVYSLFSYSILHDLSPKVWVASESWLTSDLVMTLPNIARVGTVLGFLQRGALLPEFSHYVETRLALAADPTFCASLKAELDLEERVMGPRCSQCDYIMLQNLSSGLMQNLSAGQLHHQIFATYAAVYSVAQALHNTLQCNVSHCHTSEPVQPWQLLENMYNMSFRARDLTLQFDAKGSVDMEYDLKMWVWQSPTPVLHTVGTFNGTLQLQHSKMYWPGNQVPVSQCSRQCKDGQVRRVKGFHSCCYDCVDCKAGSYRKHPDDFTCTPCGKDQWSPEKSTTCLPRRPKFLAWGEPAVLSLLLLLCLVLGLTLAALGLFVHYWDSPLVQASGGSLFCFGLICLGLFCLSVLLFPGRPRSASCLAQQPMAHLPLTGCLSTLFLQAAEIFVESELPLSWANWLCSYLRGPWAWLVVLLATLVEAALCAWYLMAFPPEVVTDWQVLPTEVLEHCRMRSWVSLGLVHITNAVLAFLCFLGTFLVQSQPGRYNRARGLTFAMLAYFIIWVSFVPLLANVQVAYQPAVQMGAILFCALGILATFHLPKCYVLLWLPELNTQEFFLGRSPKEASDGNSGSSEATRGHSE
Experiment: Calcium assay, hTAS1R1 mutant co-expressed with rTAS1R3
Type: cell-based, rat

Row | response to the agonist alone, vs WT (Q278Y) | SMILES | EC50 | effect of the added compound (1 mM) on the response to L-Glu (Q278Y) | Max ∆F/F0 (Q278Y, GSH) | R1 = mutant EC50/WT EC50 (Q278Y, GSH)
1 | strongly affected | CCCC(CCC)NC(=O)c1ccc2c(c1)OCO2 [S807, N-(heptan-4-yl)benzo[d][1,3]dioxole-5-carboxamide, reference compound] |  |  |  | 
2 |  | N[C@@H](CCC(=O)N[C@@H](CS)C(=O)NCC(=O)O)C(=O)O [GSH, γ-L-glutamyl-L-cysteinyl-glycine] | 3.96 ± 1.76 mM | synergy was observed | 0.47 ± 0.07 | 1.6
